The values that follow come from patent US20190304569A1, “DRUG TARGETING OF HUMAN INDOLEAMINE 2,3-DIOXYGENASE” (Albert Einstein College of Medicine, priority 2016, published 2019).

The test addresses human indoleamine 2,3-dioxygenase (hIDO) (Homo sapiens, UniProt P14902). Description: hIDO enzyme activity in solution studies (binding to the Si site). The test is classed as biochemical. As to conditions: for effect of binding to the Si site on the enzyme activity: solution data. The text has this:
The existence of the Si site in hIDO was first proposed by us in 2009 based on solution studies (8). […] It is notable that for decades MitoC has been widely used as a chemotherapy drug for several types of cancer (9).

Chain of human indoleamine 2,3-dioxygenase (hIDO) (P14902 whole entry): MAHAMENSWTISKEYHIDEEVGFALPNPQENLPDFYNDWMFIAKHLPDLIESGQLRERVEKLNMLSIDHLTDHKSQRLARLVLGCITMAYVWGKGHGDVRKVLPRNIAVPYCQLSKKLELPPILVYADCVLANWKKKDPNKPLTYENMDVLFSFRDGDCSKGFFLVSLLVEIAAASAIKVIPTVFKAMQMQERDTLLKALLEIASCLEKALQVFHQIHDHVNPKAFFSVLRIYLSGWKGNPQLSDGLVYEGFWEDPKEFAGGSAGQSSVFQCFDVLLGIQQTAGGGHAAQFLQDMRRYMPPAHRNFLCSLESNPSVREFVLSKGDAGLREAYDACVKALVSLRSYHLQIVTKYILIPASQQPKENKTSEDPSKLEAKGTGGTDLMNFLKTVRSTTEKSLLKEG

Consider `CO[C@@]12[C@H](COC(N)=O)C3=C(C(=O)C(C)=C(N)C3=O)N1C[C@@H]1N[C@@H]12` [MitoC, Mitomycin C], for which the “effect of binding to the Si site on the enzyme activity” value was “inhibiting the enzyme activity”. The compound also displayed a Ki (uncompetitive inhibition of hIDO by binding to the Si site) of 25 µM.

On to `N[C@@H](Cc1c[nH]c2ccccc12)C(=O)O` [Trp, tryptophan], for which the “effect of binding to the Si site on the enzyme activity” value was “inhibits the enzyme activity”.

The term Ki denotes a measure of affinity in units of concentration, obtained from inhibition or displacement. A high value points to a looser hold on the target.
